According to patent US7291743B2, “Isoxazole derivatives and methods of treating nitric oxide mediated diseases” (Geneblue Corporation, priority 2005, dated 2007):

What was measured:
[1] = test system: RAW264.7 cells (murine macrophage); assay: Inhibition of nitric oxide production in vitro (nitrite by Griess reagent in LPS-stimulated macrophage cells); type: cell-based; conditions: Mus musculus, LPS 1 μg/mL, 24 hours, test solution 25-200 μM, nitrite by Griess reagent at 550 nm, Mean ± S.E. of 4-6 observations, read-out: IC50 (inhibition of LPS-induced NO production)
Procedure: • 1. Prepare the cell culture medium DMEM (Dulbecco's modified eagle medium) with 10% fetal calf serum and 10% penicillin-streptomycin. Grow RAW264.7 cells (murine macrophage) in the medium in an incubator at 37° C. under 5% CO2 and saturated water vapor. • 2. Dissolve each test compound in DMSO to make a stock solution. Prepare the test solutions by making suitable dilutions of each stock solution with DMEM. • 3. Add the LPS solution (final concentration=1 μg/mL) and the test solution (final concentration ranging from 25, 50, 100, and up to 200 μM) to individual cell cultures and place in the incubator for 24 hours. • 4. In vitro Nitrite quantification: The production of NO was determined by measuring the accumulated levels of nitrite in culture supernatants with the Griess reagent in LPS-stimulated macrophage cells. • (a) Withdraw 100 μL of the medium from each cell culture and place in a 96-well plate microplate. Add 100 μL of Griess reagent to the medium at room temperature and cover with aluminum foil for 10 minutes. • (b) Measure the absorption by a Dynatech ELISA reader at 550 nm. NaNO2 was used as the standard to calculate the nitrite concentration. • (c) Calculate the % inhibiiton by the following equation: […]
Wherein RM is the reading of medium only, RM+L is the reading of medium with LPS, RM+L+C is the reading of medium with LPS and test compound.

[2] = test system: inducible nitric oxide synthase (iNOS) in rat astrocytes; conditions: cited from earlier work

melting point | SMILES | IC50 [1] | inhibition of activation of iNOS [2]
178 to 180 °C | Cc1cc(C(=O)Nc2ccc(NC(=O)c3cc(C)on3)cc2)no1 [Compound 14c] | 0.6 ± 0.01 µM | 
148 to 150 °C | Cc1cc(C(=O)Oc2ccc(OC(=O)c3cc(C)on3)cc2)no1 [Compound 15c] | 7.6 ± 0.4 µM | 
 | C/C(O)=C(\C#N)C(=O)Nc1ccc(C(F)(F)F)cc1 [Compound A771726, reference compound] | 175 ± 4.7 µM | 
 | Cc1oncc1C(=O)Nc1ccc(C(F)(F)F)cc1 [lefunomide, leflunomide] |  | inhibit activation of iNOS in rat astrocytes
